System: 317291-083-R-J1-PDC complex spheroids, viability
Assay: Anticancer human tumor 317291-083-R-J1-PDC patient-derived soft tissue sarcoma cell line growth inhibition [GQUAD]
Conditions: for IC50: curve of first compound; for viability, T/C: stronger effect = lower value
From the text: DNA G-quadruplex Stabilizer Agents in Combinations in Complex Spheroids
A high-throughput screen of multi-cell type tumor spheroids was designed to identify active combinations of DNA G-quadruplex stabilizer agents and targeted small molecules. Complex spheroids include a stromal component modeled by human endothelial cells (HUVEC) and fibroblasts modeled by human mesenchymal stem cells (MSCs). The concentration ranges selected for each drug and investigational agent were based upon clinically achievable concentrations if the clinical Cmax of the agent was known.
Compounds. The drugs and investigational agents: pidnarulex (CX-5461; NSC782164), APTO-253 (NSC789042), BRACO-19 (NSC847499), peposertib (NSC802822), ceralasertib (NSC780249), elimusertib (NSC800525), camonsertib (NSC841442), AZD-1390 (NSC803789), olaparib (NSC753686), talazoparib (NSC767125), ART-558 (NSC835418), sotorasib (NSC818433), MRTX-1133 (NSC836407), SN-38 (NSC673596), topotecan (NSC609699), etoposide (NSC141540), doxorubicin (NSC123127), gemcitabine (NSC613327), 5-fluorouracil (NSC19893), paclitaxel (NSC125973), vemurafenib (NSC761431), panobinostat (NSC761190), R-306465 (JNJ-16241199; NSC773264), adavosertib (NSC754352), TP-3654 (NSC805149), carboplatin (NSC241240), KSQ-4279 (NSC840948), and staurosporine (NSC755774) were obtained from the National Cancer Institute (NCI) Developmental Therapeutics Program Chemical Repository (34). The FDA-approved anticancer drug set is available from the NCI Developmental Therapeutics Program. […] The stock solutions were prepared in dimethyl sulfoxide (DMSO, Sigma-Aldrich, St. Louis, MO, cat. D2650) at 800-fold the tested concentration and stored at -70 degrees C prior to their use. All drugs and investigational agents were tested over a range starting from a high concentration at or near the clinical Cmax and decreasing in half-log increments. If the clinical Cmax for an agent had not been determined, the highest concentration tested was 10 microM.
2.3 Cell Culture. All cells were maintained in an incubator at 37 degrees C and 5% CO2 with 95% humidity. The PDC lines were cultured according to standard operating procedures established by the NCI PDMR. All PDCs were thawed and cultured in Matrigel-coated flasks prepared with a working solution of 1X Ham's F-12 nutrient mix, without supplementation (Invitrogen, cat. 11765054), 100 U/mL penicillin-streptomycin (Invitrogen, cat. 15140122), and 2.5% Matrigel (Corning Inc., cat. 354248) for the first three passages. The 857933-349-R-J2-PDC line was cultured in 6C/Colon 1B media, which includes advanced DMEM/F-12 (Thermo Fisher Scientific, cat. 12634028), 10 mM HEPES (Thermo Fisher Scientific, cat. 15630080), 1X GlutaMAX supplement (Thermo Fisher Scientific, cat. 35050061), 0.1 mg/mL primocin (InvivoGen, cat. ant-pm-2), 10% defined fetal bovine serum, heat inactivated (HyClone Laboratories Inc., cat. SH30070.03HI), 50% L-WRN conditioned media (ATCC, cat. CRL-3276), 1.25 mM N-Acetyl-L-cysteine (Sigma-Aldrich, cat. A9165), 10 mM nicotinamide (Sigma-Aldrich, cat. N0636), 1X B-27 supplement (Thermo Fisher Scientific, cat. 17504044), 1X N-2 supplement (Thermo Fisher Scientific, cat. 17502048), 10 microM Y-27632 dihydrochloride (Tocris Bioscience, cat. 1254), and 50 ng/mL human EGF recombinant protein (Thermo Fisher Scientific, cat. PHG0311). The 485176-168-R4-J1-PDC line was cultured in Panc media, which includes all 6C/Colon 1B media components plus 100 ng/mL human FGF-10 (Thermo Fisher Scientific, cat. 100-26), 500 nM SB-431542 (Selleckchem, cat. S1067), and gastrin (Tocris, cat. 3006).
[…]
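Further: spheroids exposed to compounds for one week before readout.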
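Wherever viability, T/C is given: percent viability relative to DMSO vehicle wells taken as 100%.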

CC1COCCN1c1cc(-c2ccnn2C)c2ccnc(-c3ccn[nH]3)c2n1 (configuration not stated) + CN(C)c1ccc(Nc2c3ccc(NC(=O)CCN4CCCC4)cc3nc3cc(NC(=O)CCN4CCCC4)ccc23)cc1
IC50 (second compound 0.0316 µM): 64.7 nM | IC50 (second compound 0.1 µM): 66.8 nM | IC50 (second compound 0.316 µM): 42.4 nM | IC50 (second compound 1 µM): < 31.6 nM | IC50 (second compound 3.16 µM): < 31.6 nM | IC50 (second compound 10 µM): < 31.6 nM | viability, T/C (second compound 0.0316 µM, first compound 0.0316 µM): 87.2% | viability, T/C (second compound 0.0316 µM, first compound 0.1 µM): 27.4% | viability, T/C (second compound 0.0316 µM, first compound 0.316 µM): 17% | viability, T/C (second compound 0.0316 µM, first compound 1 µM): 13.8% | viability, T/C (second compound 0.0316 µM, first compound 3.16 µM): 13.8% | viability, T/C (second compound 0.0316 µM, first compound 10 µM): 14.2% | viability, T/C (second compound 0.1 µM, first compound 0.0316 µM): 84.5% | viability, T/C (second compound 0.1 µM, first compound 0.1 µM): 31.4% | viability, T/C (second compound 0.1 µM, first compound 0.316 µM): 14.9% | viability, T/C (second compound 0.1 µM, first compound 1 µM): 13.7% | viability, T/C (second compound 0.1 µM, first compound 3.16 µM): 12.1% | viability, T/C (second compound 0.1 µM, first compound 10 µM): 14% | viability, T/C (second compound 0.316 µM, first compound 0.0316 µM): 59.1% | viability, T/C (second compound 0.316 µM, first compound 0.1 µM): 24.3% | viability, T/C (second compound 0.316 µM, first compound 0.316 µM): 15.2% | viability, T/C (second compound 0.316 µM, first compound 1 µM): 11.2% | viability, T/C (second compound 0.316 µM, first compound 3.16 µM): 15.5% | viability, T/C (second compound 0.316 µM, first compound 10 µM): 19.9% | viability, T/C (second compound 1 µM, first compound 0.0316 µM): 41.1% | viability, T/C (second compound 1 µM, first compound 0.1 µM): 17% | viability, T/C (second compound 1 µM, first compound 0.316 µM): 33.6% | viability, T/C (second compound 1 µM, first compound 1 µM): 10.3% | viability, T/C (second compound 1 µM, first compound 3.16 µM): 7.25% | viability, T/C (second compound 1 µM, first compound 10 µM): 6.88% | viability, T/C (second compound 3.16 µM, first compound 0.0316 µM): 25.8% | viability, T/C (second compound 3.16 µM, first compound 0.1 µM): 7.15% | viability, T/C (second compound 3.16 µM, first compound 0.316 µM): 5.62% | viability, T/C (second compound 3.16 µM, first compound 1 µM): 4.31% | viability, T/C (second compound 3.16 µM, first compound 3.16 µM): 3.37% | viability, T/C (second compound 3.16 µM, first compound 10 µM): 2.05% | viability, T/C (second compound 10 µM, first compound 0.0316 µM): 3.62% | viability, T/C (second compound 10 µM, first compound 0.1 µM): 5.3% | viability, T/C (second compound 10 µM, first compound 0.316 µM): 7.04% | viability, T/C (second compound 10 µM, first compound 1 µM): 4% | viability, T/C (second compound 10 µM, first compound 3.16 µM): 1.52% | viability, T/C (second compound 10 µM, first compound 10 µM): 0.66%

Source: PubChem BioAssay AID2060497 (Molecular Pharmacology Branch, DTP, NCI, 2025)
